Experimental data: ChEMBL document CHEMBL1144672, “The use of ligand-based de novo design for scaffold hopping and sidechain optimization: two case studies” (Bioorg Med Chem, 2008)

Assays:
[1] = molecular target: T1, Gonadotropin-releasing hormone receptor (Homo sapiens, UniProt P30968); assay: Inhibition of GnRH receptor
T1 sequence (P30968 whole entry): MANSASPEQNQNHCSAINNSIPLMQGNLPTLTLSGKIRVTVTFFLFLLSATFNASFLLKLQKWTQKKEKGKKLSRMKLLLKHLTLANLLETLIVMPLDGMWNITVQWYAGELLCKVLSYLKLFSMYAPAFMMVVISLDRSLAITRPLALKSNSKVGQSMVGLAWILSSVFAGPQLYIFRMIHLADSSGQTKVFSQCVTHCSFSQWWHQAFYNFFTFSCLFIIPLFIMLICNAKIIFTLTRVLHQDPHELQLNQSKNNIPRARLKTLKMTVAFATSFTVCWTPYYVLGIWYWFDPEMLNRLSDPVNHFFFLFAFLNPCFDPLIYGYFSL

[2] = molecular target: T2, Gonadotropin-releasing hormone receptor (Homo sapiens) (UniProt P30968); assay: Inhibition of GnRH receptor at 10 uM
T2 sequence (whole entry): T1 sequence (P30968 whole entry)

Ki [1] [nM]	inhibition [2] [%]	Compound
6		COc1cccc(-c2c(C)n(Cc3c(F)cccc3F)c(=O)n(CC(C)NCc3nccs3)c2=O)c1F (stereo not drawn)
3200	66	NC(CC1CCCCC1)Cn1c(=O)c2c(n(Cc3c(F)cccc3F)c1=O)CCN(Cc1ccc(Cl)cc1)C2 (stereo not drawn)
	16	O=c1c2c(n(Cc3c(F)cccc3F)c(=O)n1CCN1CCc3ccccc3C1)CCN(CC1CCCC1)C2
	0	CC(C)CN(C)CCn1c(=O)c2c(n(CCOc3ccccc3)c1=O)CCN(CCCC(F)(F)F)C2
0.7		Cc1cc(C)cc(-c2[nH]c3ccc(C(C)(C)C(=O)N4C5CCC4CC5)cc3c2C(C)CNCCCCc2ccnnc2)c1 (stereo not drawn)
110	95	Cc1ccc(CN2CCc3c(c(=O)n(CC4NCCc5ccccc54)c(=O)n3Cc3c(F)cccc3F)C2)c(C)c1 (stereo not drawn)
1900	72	Cc1ccc(CN2CCc3c(c(=O)n(CC4CCNCC4)c(=O)n3Cc3c(F)cccc3F)C2)c(C)c1
21		COc1ccc(CN2CC3CC(c4ccc(N(C)C)c5ccccc45)N4C(=O)N(CCN5CCOCC5)C(=O)C34C2)cc1NC(C)=O (stereo not drawn)
50	100	CNC(Cn1c(=O)c2c(n(Cc3c(F)cccc3F)c1=O)CCN(Cc1ccc(C)cc1C)C2)c1ccccc1 (stereo not drawn)
4400	50	CC(CCN1CCc2c(c(=O)n(CCN3CCCCC3)c(=O)n2Cc2c(F)cccc2F)C1)CC(C)(C)C (stereo not drawn)
2500	73	CC(C)CN(C)CCn1c(=O)c2c(n(Cc3c(F)cccc3F)c1=O)CCN(Cc1ccc(OC(F)(F)F)cc1)C2
50		CCOC(=O)c1cn(Cc2c(F)cccc2F)c2cc(-c3ccc(NC(=O)CC)cc3)c(CN(C)Cc3ccccc3)cc2c1=O
